Reference: patent publication US10653709B2, “Methods of folding a graft copolymer with dual anticancer drugs and related applications” (priority 2014, dated 2020)

Key:
Assay type in all cases: cell-based
[1] = test system: MDA-MB-468; experiment: In vitro cytotoxicity, MTT assay; settings: Homo sapiens; MDA-MB-468 (breast), 48 hours, mean ± SD
Method: (§1) In vitro cytotoxicity of CPT, Dox, MB-20 and MB-20/Dox was measured using the 3-(4,5-dimethylthiazol-2-yl)-2,5-diphenyltetrazolium bromide (MTT) assay. Briefly, cancer cells were seeded in a 96-well plate at a density of 5,000 cells per well. After 12 h incubation, a series of drug dilution (1 nM to 300 μM) were added into wells. After 48 h of drug treatment, the cytotoxicity was measured using the MTT assay. To enhance the assay sensitivity, Sorensen's glycine buffer (0.1 M glycine, 0.1 M NaCl adjust pH to 10.5 with 0.1 N NaOH) was added into wells before absorbance assay. See Plumb et al., Cancer Res., 49, 4435-4440 (1989); Tai et al., Mol. Pharm., 8, 901-912 (2011); and Tai et al., Mol. Pharm., 10, 477-487 (2013). The absorbance at wavelength of 570 nm was measured using a microplate reader (Infinite® M200 PRO, Tecan, Mannedorf, Switzerland). The half-maximal inhibitory concentration (IC50) was calculated by fitting a concentration—absorbance curve using the Graphpad Prism 5 software (Graphpad Software Inc., San Diego, Calif., United States of America).

[2] = test system: PC-3; experiment: In vitro cytotoxicity, MTT assay; settings: Homo sapiens; PC-3 (prostate), 48 hours, mean ± SD
Method: as §1

[3] = test system: Hep G2; experiment: In vitro cytotoxicity, MTT assay; settings: Homo sapiens, HepG2; Hep G2 (liver), 48 hours, mean ± SD
Method: as §1

[4] = test system: NCI-H441; experiment: In vitro cytotoxicity, MTT assay; settings: Homo sapiens; NCI-H441 (lung), 48 hours, mean ± SD
Method: as §1

[5] = test system: MCF-7; experiment: In vitro cytotoxicity, MTT assay; settings: Homo sapiens, MCF7; MCF-7 (breast), 48 hours, mean ± SD
Method: as §1

[6] = test system: A549; experiment: In vitro cytotoxicity, MTT assay; settings: Homo sapiens; A549 (lung), 48 hours, mean ± SD
Method: as §1

[7] = test system: HeLa; experiment: In vitro cytotoxicity, MTT assay; settings: Homo sapiens; HeLa (cervix), 48 hours, mean ± SD
Method: as §1

[8] = test system: MDA-MB-231; experiment: In vitro cytotoxicity, MTT assay; settings: Homo sapiens; MDA-MB-231 (breast), 48 hours, mean ± SD
Method: as §1

[9] = test system: HL-60; experiment: In vitro cytotoxicity, CellTiter-Glo Luminescent Cell Viability Assay; settings: Homo sapiens, HL-60 (leukemia), suspension cells, mean ± SD
[10] = test system: panel of 9 cancer cell lines; experiment: In vitro cytotoxicity across the panel; settings: range over the panel, 48 hours; read-out: IC50s across cancer cell lines
Method: as §1

**Q.** Which results are given for CC[C@@]1(O)C(=O)OCc2c1cc1n(c2=O)Cc2cc3ccccc3nc2-1 [CPT, camptothecin]?
**A.** IC50 [1]: 90 ± 90 nM; IC50 [2]: 20 nM; IC50 [3]: 600 ± 1400 nM; IC50 [4]: 100 ± 200 nM; IC50 [5]: 1200 ± 1000 nM; IC50 [6]: 300 nM; IC50 [7]: 3300 ± 1500 nM; IC50 [8]: 600 ± 500 nM; IC50 [9]: 400 ± 1000 nM; IC50 [10]: 20 to 3300 nM

**Q.** Which IC50 [1] does the source give for COc1cccc2c1C(=O)c1c(O)c3c(c(O)c1C2=O)C[C@@](O)(C(=O)CO)C[C@@H]3O[C@H]1C[C@H](N)[C@H](O)[C@H](C)O1 [Dox, doxorubicin] here?
**A.** 100 nM

**Q.** And the IC50 [2]?
**A.** 200 ± 400 nM

**Q.** And the IC50 [3]?
**A.** 500 ± 1400 nM

**Q.** And the IC50 [4]?
**A.** 200 ± 400 nM

**Q.** What about the IC50 [5] of the same compound?
**A.** 300 nM

**Q.** And the IC50 [6]?
**A.** 500 ± 800 nM

**Q.** And the IC50 [7]?
**A.** 1000 ± 1700 nM

**Q.** And the IC50 [8]?
**A.** 100 nM

**Q.** What about the IC50 [9] of the same compound?
**A.** 300 nM
